Experimental data published in PMC3280276 (PLoS ONE, 2012).

System: C-terminal peptide […]
Format: binding

saporin
interaction with C-terminal peptide […]: did not observe any measurable interactions
